Data reported in patent US10815197B2, “N-sulfonyl benzamides as voltage-gated sodium channel inhibitors” (SHANGHAI HAIYAN PHARMACEUTICAL TECHNOLOGY CO., LTD., priority 2016, dated 2020).
“Also recorded” adds a separate entry of the source.

What was measured:
hNav1.5 = molecular target: T1, hNav1.5 (Homo sapiens, UniProt Q14524); experiment: Manual patch clamp experiment hNav1.5 (HEK-hNav1.5 stable cell line); assay type: cell-based; details: read-out: Nav1.5(IC50/nM)
T1 construct: host or cells: HEK
T1 sequence (Q14524 whole entry): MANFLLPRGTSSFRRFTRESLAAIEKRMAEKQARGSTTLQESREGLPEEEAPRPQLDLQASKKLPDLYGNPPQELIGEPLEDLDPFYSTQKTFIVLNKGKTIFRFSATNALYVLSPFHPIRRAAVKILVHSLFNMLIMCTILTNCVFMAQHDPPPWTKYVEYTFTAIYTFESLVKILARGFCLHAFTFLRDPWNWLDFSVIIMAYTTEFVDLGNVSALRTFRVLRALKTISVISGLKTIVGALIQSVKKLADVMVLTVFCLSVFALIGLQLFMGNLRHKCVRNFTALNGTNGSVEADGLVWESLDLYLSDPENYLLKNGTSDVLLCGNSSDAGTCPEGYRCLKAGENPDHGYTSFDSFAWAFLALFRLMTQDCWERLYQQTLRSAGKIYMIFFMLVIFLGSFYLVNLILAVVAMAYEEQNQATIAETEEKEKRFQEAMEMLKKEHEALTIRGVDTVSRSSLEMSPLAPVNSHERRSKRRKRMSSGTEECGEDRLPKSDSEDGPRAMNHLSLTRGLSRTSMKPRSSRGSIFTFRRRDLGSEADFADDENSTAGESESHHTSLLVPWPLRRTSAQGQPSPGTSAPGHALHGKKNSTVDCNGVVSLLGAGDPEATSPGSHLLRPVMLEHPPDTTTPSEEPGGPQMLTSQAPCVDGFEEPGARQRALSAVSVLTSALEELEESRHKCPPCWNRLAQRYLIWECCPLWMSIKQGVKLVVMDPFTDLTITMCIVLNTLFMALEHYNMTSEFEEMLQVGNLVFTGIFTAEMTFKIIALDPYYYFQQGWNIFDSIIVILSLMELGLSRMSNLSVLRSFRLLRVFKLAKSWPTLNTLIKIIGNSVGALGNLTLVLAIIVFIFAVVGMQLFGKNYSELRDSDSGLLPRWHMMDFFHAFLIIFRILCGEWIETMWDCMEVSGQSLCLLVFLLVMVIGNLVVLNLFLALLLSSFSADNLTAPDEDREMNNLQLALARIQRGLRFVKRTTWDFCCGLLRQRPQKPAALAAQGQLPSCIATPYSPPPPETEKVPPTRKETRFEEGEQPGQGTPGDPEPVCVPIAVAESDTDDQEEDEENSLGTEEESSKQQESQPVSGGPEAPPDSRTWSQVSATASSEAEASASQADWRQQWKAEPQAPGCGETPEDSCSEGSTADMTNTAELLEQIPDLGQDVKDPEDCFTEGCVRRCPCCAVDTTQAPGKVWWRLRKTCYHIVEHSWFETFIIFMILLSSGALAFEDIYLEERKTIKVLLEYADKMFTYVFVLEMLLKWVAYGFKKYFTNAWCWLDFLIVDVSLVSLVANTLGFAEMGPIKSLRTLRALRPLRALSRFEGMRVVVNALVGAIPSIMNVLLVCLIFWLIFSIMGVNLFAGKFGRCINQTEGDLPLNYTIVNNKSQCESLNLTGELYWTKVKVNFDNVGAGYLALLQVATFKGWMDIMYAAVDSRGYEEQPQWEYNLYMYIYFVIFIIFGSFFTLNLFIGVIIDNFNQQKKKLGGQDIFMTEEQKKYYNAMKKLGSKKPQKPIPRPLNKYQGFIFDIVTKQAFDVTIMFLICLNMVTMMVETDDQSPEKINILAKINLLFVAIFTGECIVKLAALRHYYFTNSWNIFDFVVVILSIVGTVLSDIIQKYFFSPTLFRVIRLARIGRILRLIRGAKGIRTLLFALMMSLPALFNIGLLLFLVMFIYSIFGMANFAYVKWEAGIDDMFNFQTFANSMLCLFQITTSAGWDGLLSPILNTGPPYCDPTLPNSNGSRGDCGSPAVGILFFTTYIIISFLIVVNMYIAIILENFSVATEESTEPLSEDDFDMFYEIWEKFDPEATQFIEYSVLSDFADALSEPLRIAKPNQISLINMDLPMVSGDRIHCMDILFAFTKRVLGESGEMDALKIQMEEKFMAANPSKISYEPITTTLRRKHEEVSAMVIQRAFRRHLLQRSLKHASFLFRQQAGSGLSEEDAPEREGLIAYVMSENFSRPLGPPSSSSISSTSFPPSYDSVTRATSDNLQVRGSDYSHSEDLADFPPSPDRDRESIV
Description: Assay 1: Manual Patch Clamp Experiment of Sodium Ion (hNav1.7, hNav1.5 and hNaV1.8) and Calcium Ion (hCav3.2) Channels
hNav1.7, hNav1.5 Manual Patch Clamp Experiment:
Patch voltage clamp electrophysiology allows for the direct measurement and quantification of current block of voltage-gated sodium channels (NaV's), and allows the determination of the time and voltage-dependence of block which has been interpreted as differential binding to the resting, open and inactivated states of the sodium channel to reflect the compound's inhibitory or activating effects (Hille, B., Journal of General Physiology (1977), 69: 497-515).
Representative compounds of the present invention were subject to a manual patch clamp experiment and the purpose of this study was to test the effect of compounds on this ion channel current on a stable cell line transfected with a specific ion channel using a manual patch clamp method. The used stable cell lines CHO-hNav1.7 and HEK-hNav1.5 were from Genionics and WuXi Apptec (Shanghai) respectively.
Manual patch clamp experimental program is as follows: […]
The time intervals of these two voltage stimulation programs were 10 s. The inhibitory effect of the compound was calculated by the change of the current before and after dosing, the IC50 value was fitted by the Hill equation.

[1] = system: SNL-induced cold allodynia in rats; experiment: Cold allodynia in SNL (spinal nerve ligation) rats; assay type: in vivo, rat
Description: Assay 3: Cold Allodynia in SNL
The experimental animals were male Sprague-Dawley rats, weighing 140-150 g at the beginning of the experiment. The animals were purchased from Slack company, and food and water were supplied ad lib after purchase. Rats were group-housed, four rats/cage, and individually identified by marking on the tail.
Test Compound and Grouping:
Vehicle: 5% dimethylacetamide(Sinopharm Technology), 5% solutol (Sigma) and 90% saline
Positive control: Pregabalin;
Test compound: compound Z-164;
The positive control and solvent composition of the test compound are 5% dimethylacetamide, 5% solutol and 90% saline.
30 mg/kg Compound Z-164:1.23 mL of dimethylacetamide was added to 148.11 mg of compound Z-164, stirred well until fully dissolved, and then 1.23 mL solutol was added and mixed well. Final volume was made up with 90% saline to 21.44 mL and mixed well before oral administration.
30 mg/kg Pregabalin: 1.08 mL of dimethylacetamide was added to 129.48 mg of Pregabalin, stirred well until fully dissolved, and then 1.08 mL solutol was added and mixed well. Final volume was made up with 90% saline to 21.58 mL and mixed well before oral administration.
1.1. Spinal Nerve Ligation (SNL) model • Surgical procedures are performed aseptically. • The surgical instruments (scissors, tweezers, scalpels, surgical cotton, sutures, retractor) are sterilized prior to surgery. • Animals were anesthetized with pentobarbital (50 mg/kg, i.p.). A toe pinch was used to ensure that the animals were fully anesthetized prior to surgery. Put ophthalmic ointment in the animal's eyes to prevent the corneas from drying out. • The fur on the surgical area of animal's lower body was shaved, and the skin of the surgical area was swabbed with 3 rounds of Betadine and 70% ethanol. The skin was allowed to dry before surgery. • A longitudinal incision will be made by scalpel at the lower lumbar and sacral levels, exposing the paraspinal muscles on the left side. The retractor was used to separate the muscles and tissues to expose the vertebra. • The left L5 and L6 spinal nerves will be isolated and tightly ligated with 6-0 silk thread. • The wound was closed with sutures. • The surgical instruments were cleaned, and sterilized by using a glass bead sterilizer. • Animals were placed on the electric blanket after surgery. Inject 5 ml sterile saline to prevent dehydration. The animals were returned to their home cage after fully awake (walking around).
1.2. Baseline Test of Cold Allodynic and Grouping
The baseline of cold allodynic was measured in rats two days before dosing. Use a pipette to apply 100 μl of acetone to the animal's lateral hind paw skin and the time of slapping, flinching, lifting, licking of the affected paw were recorded for one minute. Acetone was applied twice in total and the two applications were 10 minutes apart. The sum of the two times was recorded as cold allodynic time in rats. The rats were grouped randomized according to the results of baseline test of cold allodynic the day before dosing.
1.3. Cold Allodynic Testing
A pipette was used to apply 100 μl of acetone to the animal's lateral hind paw skin two hours after dosing and the time of slapping, flinching, lifting, licking of the affected paw were recorded for one minute. Acetone was applied twice and the two applications were 10 minutes apart. The sum of the two times was recorded as cold allodynic time in rats.
Oral administration was performed two hours before cold allodynic testing.
1.5. Data Collection and Analysis
Data were collected with Excel and analyzed with Prism.

[2] = 30 mg/kg p.o., two hours after dosing

Which IC50 (hNav1.5) does the source give for `Cc1cc(N2CCN(Cc3cc(F)c(C(=O)NS(=O)(=O)C4CC4)cc3Cl)CC2)ccc1Cl` [Compound Z-164] here?
The IC50 was 6160 nM.

What about the “Anti-allodynia Effect (mean, %)” value [1, 2] of the same compound?
The value was 39.7%.

What about the “Response duration (mean, s) the next day (Baseline)” value [1, 2] of the same compound?
The value was 24.327 s.

And the “inhibition of SNL-induced cold allodynia (in words)” value ([1]; 30 mg/kg, 2 hr post oral administration)?
Its value is “statistically significant inhibitory effect; also recorded: inhibition of SNL-induced cold allodynia”.

And the “Response duration (mean, s) the first day (Baseline)” value ([1]; acetone cold allodynia, baseline before dosing)?
Its value is 36.831 s.
